Data on 13 molecules can be found in ChEMBL document CHEMBL5036318, “Synthesis and Biological Evaluation of Phosphoester and Phosphorothioate Prodrugs of STING Agonist 3',3'-c-Di(2'F,2'dAMP)” (J Med Chem, 2021).

The nature of series [1]: Drug uptake in human THP1-Dual cells at extra cellular concentration incubated for 24 hrs by HPLC-LS analysis. It counts as ADME, cell-based.
Series [2] in a line: Drug uptake in human THP1-Dual cells at 125 uM incubated for 24 hrs by HPLC-LS analysis. It counts as ADME, cell-based.
Series [3] concerns the target Stimulator of interferon genes protein (Homo sapiens, UniProt Q86WV6, G230A/R293Q). The experiment in a line: Activation of human STING QA mutant expressed in digitonin treated HEK293T cells co-expressing IRF3-activated ISRE assessed as IRF3 reporter activation by luciferase reporter gene assay. It counts as cell-based. (A reporter such as luciferase makes a cellular process visible.)

In series [4] the target is Stimulator of interferon genes protein (Homo sapiens, UniProt Q86WV6, G230A/R293Q/R71H). The experiment in a line: Activation of human STING HAQ mutant expressed in digitonin treated HEK293T cells co-expressing IRF3-activated ISRE assessed as IRF3 reporter activation by luciferase reporter gene assay. The series is classed as cell-based.
Sequence of Stimulator of interferon genes protein (Homo sapiens, UniProt Q86WV6, G230A/R293Q/R71H) (Q86WV6 whole entry R71H/G230A/R293Q): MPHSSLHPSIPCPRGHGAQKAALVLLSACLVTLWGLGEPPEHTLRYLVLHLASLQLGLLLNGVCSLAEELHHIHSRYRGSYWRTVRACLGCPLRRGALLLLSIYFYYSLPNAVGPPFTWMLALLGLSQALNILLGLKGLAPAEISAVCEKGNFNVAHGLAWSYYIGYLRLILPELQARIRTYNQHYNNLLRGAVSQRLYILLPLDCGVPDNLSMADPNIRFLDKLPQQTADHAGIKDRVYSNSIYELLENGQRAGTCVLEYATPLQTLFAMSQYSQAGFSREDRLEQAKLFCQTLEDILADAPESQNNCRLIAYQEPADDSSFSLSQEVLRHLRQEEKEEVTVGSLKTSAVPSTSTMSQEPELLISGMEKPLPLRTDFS
Series [5] can be described thus: Activation of human STING Q mutant expressed in digitonin treated HEK293T cells co-expressing IRF3-activated ISRE assessed as IRF3 reporter activation by luciferase reporter gene assay. The series is classed as cell-based. Conditions: HEK-293T; call rule not given here.
Series [6] addresses T1, Stimulator of interferon genes protein (Homo sapiens, UniProt Q86WV6). As to the kind of experiment: Activation of wild-type human STING expressed in digitonin treated HEK293T cells co-expressing IRF3-activated ISRE assessed as IRF3 reporter activation by luciferase reporter gene assay. It counts as cell-based.
A short description of series [7]: Induction of INF-gamma production in healthy human PBMC incubated for 16 hrs. It counts as functional, tissue-based.
A short description of series [8]: Induction of INF-alpha production in healthy human PBMC incubated for 16 hrs. The series is classed as functional, tissue-based.
Series [9] addresses T1, Stimulator of interferon genes protein. As to the kind of experiment: Activation of wild-type human STING expressed in digitonin treated human THP1-Dual cells co-expressing IRF3-activated ISRE assessed as IRF3 reporter activation measured after 30 mins by luciferase reporter gene assay. It counts as cell-based.
The target is the same in series [10]. The experiment in a line: Activation of wild-type human STING expressed in human THP1-Dual cells co-expressing IRF3-activated ISRE assessed as IRF3 reporter activation measured after 7 hrs by luciferase reporter gene assay. It counts as cell-based.
Series [11] has the same target. As to the kind of experiment: Activation of wild-type human STING expressed in HEK293T cells co-expressing IRF3-activated ISRE assessed as IRF3 reporter activation measured after 30 mins by luciferase reporter gene assay. The series is classed as cell-based.
For series [12] the target is unchanged. The experiment in a line: Binding affinity to wild type STING (unknown origin) assessed as change in melting temperature by differential scanning fluorimetry. Conditions: filed as activator. (Differential scanning fluorimetry follows unfolding on heating by fluorescence.)
The next series can be described thus: cells. Conditions: Homo sapiens, HEK-293T.
The nature of series [13]: Induction of TNF-alpha production in healthy human PBMC incubated for 16 hrs. The series is classed as functional, tissue-based.
Series [14] can be described thus: Drug uptake in human THP1-Dual cells at 1.25 uM incubated for 2 hrs by HPLC-LS analysis. It counts as ADME, cell-based.
Series [15] can be described thus: Drug metabolism in human THP1-Dual cells assessed as 3',3'-c-di(2'F,2'dAMP) metabolite formation measured after 2 hrs by HPLC analysis. The series is classed as ADME, cell-based.
The nature of series [16]: Drug metabolism in human THP1-Dual cells assessed as 3',3'-c-di(2'F,2'dAMP) metabolite formation measured after 24 hrs by HPLC analysis. The series is classed as ADME, cell-based.
For series [17], the target named is T1, Stimulator of interferon genes protein. The experiment in a line: Binding affinity to human STING expressed in […] cells assessed as change in melting temperature by Cell-based assay. Conditions: HEK293T, filed as activator.
Series [18] in a line: Potency index, ratio of test compound EC50 to prodrug EC50 for induction of TNF-alpha production in healthy human PBMC incubated for 16 hrs. It counts as functional.
Series [19] is described as follows: Potency index, ratio of test compound EC50 to prodrug EC50 for induction of INF-alpha production in healthy human PBMC incubated for 16 hrs. It counts as functional.
Series [20] deals with T1, Stimulator of interferon genes protein. As to the kind of experiment: Activation of wild-type human STING expressed in HEK293T cells co-expressing IRF3-activated ISRE assessed as IRF3 reporter activation measured after 7 hrs by luciferase reporter gene assay. The series is classed as cell-based.
A short description of series [21]: Potency index, ratio of test compound EC50 to prodrug EC50 for induction of INF-gamma production in healthy human PBMC incubated for 16 hrs. The series is classed as functional.
The nature of series [22]: Stability in human plasma assessed as half life. It counts as ADME, cell-free.
Series [23] is described as follows: Stability in mouse plasma assessed as half life. The series is classed as ADME, cell-free.

Sequence of Stimulator of interferon genes protein (Homo sapiens, UniProt Q86WV6, G230A/R293Q) (Q86WV6 whole entry G230A/R293Q): as the sequence (Q86WV6 whole entry R71H/G230A/R293Q) above, with H71R counted along it
T1 sequence (Q86WV6 whole entry): as the sequence (Q86WV6 whole entry R71H/G230A/R293Q) above, with H71R, A230G, Q293R counted along it
Description for cells: Activation of human STING REF mutant expressed in digitonin treated HEK293T cells co-expressing IRF3-activated ISRE assessed as IRF3 reporter activation by luciferase reporter gene assay

Regarding `[3H]c1nc2c(N)ncnc2n1[C@@H]1O[C@@H]2COP(=O)(O)O[C@H]3[C@@H](F)[C@H](n4c([3H])nc5c(N)ncnc54)O[C@@H]3COP(=O)(O)O[C@H]2[C@H]1F`, the Drug uptake result in series [1] and in [2] was “Not Active” throughout.
Usually EC50 stands for the concentration needed to bring the measured effect to its halfway point. Regarding `Nc1ncnc2c1ncn2[C@@H]1O[C@@H]2COP(=O)(O)O[C@H]3[C@@H](O)[C@H](n4cnc5c(N)ncnc54)O[C@@H]3COP(=O)(O)O[C@H]2[C@H]1O`, the EC50 in series [3] turned out to be 170 nM; in [4], 190 nM; in [5] it was 7090 nM.
What is called ΔTm is the shift of the melting midpoint relative to a reference. `Nc1ncnc2c1ncn2[C@@H]1O[C@@H]2CO[P@](=O)(S)O[C@H]3[C@@H](F)[C@H](n4cnc5c(N)ncnc54)O[C@@H]3CO[P@](=O)(S)O[C@H]2[C@H]1F`: the EC50 in series [6] is 170 nM; in series [7] it was 9870 nM; in [8] it was 29600 nM; in series [9], 12100 nM; in series [10], 7790 nM; in series [11] it was 2280 nM. In addition, the EC50 in series [3] is 260 nM; in [4], 880 nM; in the series “cells”, 8700 nM; in series [5], 4070 nM; in [13], 26800 nM. For the same molecule, in series [12], the ΔTm stood at 5.5 °C.
Turning to `Nc1ncnc2c1ncn2[C@@H]1O[C@@H]2CO[P@@](=O)(S)O[C@H]3[C@@H](F)[C@H](n4cnc5c(N)ncnc54)O[C@@H]3CO[P@@](=O)(S)O[C@H]2[C@H]1F`, the EC50 in series [6] stood at 40 nM; in [7], 6080 nM; in series [8] it was 38700 nM; in series [9] it was 3560 nM; in series [10], 360 nM; in series [11], 7020 nM. Moreover, the EC50 in series [3] amounted to 40 nM; in series [4], 80 nM; in the series “cells”, 130 nM; in series [5], 80 nM; in [13] it was 9370 nM. For the same molecule, in series [12], the ΔTm was 15.9 °C.
With `Nc1nc2c(ncn2[C@@H]2O[C@@H]3COP(=O)(O)O[C@H]4[C@@H](O)[C@H](n5cnc6c(=O)[nH]c(N)nc65)O[C@@H]4COP(=O)(O)O[C@H]3[C@H]2O)c(=O)[nH]1`, the EC50 is 8410 nM in the series “cells” and greater than 45000 nM in [5].
As to `[3H]c1nc2c(N)ncnc2n1[C@@H]1O[C@@H]2CO[P@@](=O)(OCOC(=O)C(C)(C)C)O[C@H]3[C@@H](F)[C@H](n4c([3H])nc5c(N)ncnc54)O[C@@H]3CO[P@@](=O)(OCOC(=O)C(C)(C)C)O[C@H]2[C@H]1F`, in series [14], the Drug uptake entry is “Active”. Further, the Drug metabolism entry in [15] was “Metabolite_Detected”; in [16], “Metabolite_Notdetected”.
Regarding `Nc1ncnc2c1ncn2[C@@H]1O[C@@H]2CO[P@@](=O)(S)O[C@H]3[C@@H](F)[C@H](n4cnc5c(N)ncnc54)O[C@@H]3COP(=O)(O)O[C@H]2[C@H]1F`, the EC50 came out at 40 nM in [6], 40 nM in series [3], 100 nM in [4] and 100 nM in [5]. Further, the ΔTm in series [12] and in [17] was 14.7 °C throughout.
Take `[3H]c1nc2c(N)ncnc2n1[C@@H]1O[C@@H]2CO[P@@](=O)(OCOC(=O)C(C)(C)C)O[C@H]3[C@@H](F)[C@H](n4c([3H])nc5c(N)ncnc54)O[C@@H]3CO[P@](=O)(OCOC(=O)C(C)(C)C)O[C@H]2[C@H]1F`: the Drug uptake entry in series [14] was “Active”. Further, the Drug metabolism entry is “Metabolite_Detected” in series [15] and “Metabolite_Notdetected” in series [16].
With `Nc1ncnc2c1ncn2[C@@H]1O[C@@H]2CO[P@@](=O)(S)O[C@H]3[C@@H](F)[C@H](n4cnc5c(N)ncnc54)O[C@@H]3CO[P@](=O)(S)O[C@H]2[C@H]1F`, the EC50 in [6] came out at 20 nM; in series [7] it was 11200 nM; in series [8], 17700 nM; in series [9], 3030 nM; in series [10] it was 310 nM; in series [11], 520 nM. Moreover, the half-maximal effective concentration (EC50) is 50 nM in series [4], 360 nM in “cells”, 210 nM in series [5] and 7290 nM in series [13]. Also, the ΔTm in series [12] and in series [17] was 11.2 °C in each case.
What is called half-life is how long it takes for the measured level to halve. Consider `CC(C)(C)C(=O)OCO[P@]1(=O)OC[C@H]2O[C@@H](n3cnc4c(N)ncnc43)[C@H](F)[C@@H]2O[P@](=O)(OCOC(=O)C(C)(C)C)OC[C@H]2O[C@@H](n3cnc4c(N)ncnc43)[C@H](F)[C@@H]2O1`, for which the EC50 in series [7] worked out at 60 nM; in series [8], 220 nM; in series [9] it was 110 nM; in [10], 30 nM; in [11] it was 30 nM; in [20], 20 nM. The same molecule yielded an EC50 in series [13] of 110 nM. In addition, the “Ratio EC50” value in series [18] worked out at 279; in [19], 234; in [21], 148. In addition, the half-life in [22] is 1.17 h; in series [23], less than 2 min.
Consider `Nc1ncnc2c1ncn2[C@@H]1O[C@@H]2COP(=O)(O)O[C@H]3[C@@H](F)[C@H](n4cnc5c(N)ncnc54)O[C@@H]3COP(=O)(O)O[C@H]2[C@H]1F`, for which the EC50 was 20 nM in series [6]; 8230 nM in series [7]; 51000 nM in series [8]; 19100 nM in [9]; 1030 nM in series [10]; 96500 nM in [11]. Moreover, the EC50 in [20] is 7990 nM; in series [4], 130 nM; in the series “cells”, 180 nM; in series [5], 140 nM; in [13], 12800 nM.
With `Nc1ncnc2c1ncn2[C@@H]1O[C@@H]2CO[P@](=O)(S)O[C@H]3[C@@H](F)[C@H](n4cnc5c(N)ncnc54)O[C@@H]3COP(=O)(O)O[C@H]2[C@H]1F`, the EC50 in series [6] was 7 nM; in [3], 70 nM; in series [4] it was 130 nM; in the series “cells”, 920 nM; in [5], 450 nM. Also, the ΔTm in series [12] and in series [17] was 8.9 °C throughout.
As for `CC(C)(C)C(=O)OCO[P@@]1(=O)OC[C@H]2O[C@@H](n3cnc4c(N)ncnc43)[C@H](F)[C@@H]2O[P@](=O)(OCOC(=O)C(C)(C)C)OC[C@H]2O[C@@H](n3cnc4c(N)ncnc43)[C@H](F)[C@@H]2O1`, the EC50 was determined as 70 nM in [7]; 440 nM in series [8]; 180 nM in [9]; 50 nM in [10]; 70 nM in series [11]; 40 nM in [20]. In addition, in series [13], the EC50 was found to be 240 nM. Moreover, the “Ratio EC50” value in series [19] came to 115; in [21] it was 110. Further, the half-life is 1 h in [22] and less than 2 min in series [23].
